Counter-ions that a name gives are not always drawn. ± gives the standard error.
Experiments:
621-102 (TSC2-deficient) [1] = experiment: relative viability vs DMSO (fraction); higher = less cytotoxic; conditions: serum: 0.1% FBS, 72 h
UMB1949 (TSC2-deficient) = experiment: as above; conditions: serum: 0.1% FBS, 72 h;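 also: renal angiomyolipoma cell lines screened in 384-well plates, viability normalized per plate to DMSO-treated cells, each plate carrying 50 nM rapamycin and 1 µM staurosporine controls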
621-102 (TSC2-deficient) [2] = experiment: relative viability vs DMSO; higher = less cytotoxic; conditions: serum: 10% FBS, 72 h
621-103 (TSC2-rescued) = experiment: as above; conditions: serum: 10% FBS, 72 h

SMILES | relative viability (621-102 (TSC2-deficient) [1]; 0.0128 nM) | relative viability (621-102 (TSC2-deficient) [1]; 0.064 nM) | relative viability (621-102 (TSC2-deficient) [1]; 0.32 nM) | relative viability (621-102 (TSC2-deficient) [1]; 1.6 nM) | relative viability (621-102 (TSC2-deficient) [1]; 8 nM) | relative viability (621-102 (TSC2-deficient) [1]; 40 nM) | relative viability (621-102 (TSC2-deficient) [1]; 200 nM) | relative viability (621-102 (TSC2-deficient) [1]; 1000 nM) | relative viability (621-102 (TSC2-deficient) [1]; 5000 nM) | relative viability (UMB1949 (TSC2-deficient); 0.0128 nM) | relative viability (UMB1949 (TSC2-deficient); 0.064 nM) | relative viability (UMB1949 (TSC2-deficient); 0.32 nM) | relative viability (UMB1949 (TSC2-deficient); 1.6 nM) | relative viability (UMB1949 (TSC2-deficient); 8 nM) | relative viability (UMB1949 (TSC2-deficient); 40 nM) | relative viability (UMB1949 (TSC2-deficient); 200 nM) | relative viability (UMB1949 (TSC2-deficient); 1000 nM) | relative viability (UMB1949 (TSC2-deficient); 5000 nM) | relative viability (621-102 (TSC2-deficient) [2]; 0.0001 µM) [%] | relative viability (621-102 (TSC2-deficient) [2]; 0.001 µM) [%] | relative viability (621-102 (TSC2-deficient) [2]; 0.01 µM) [%] | relative viability (621-102 (TSC2-deficient) [2]; 0.1 µM) [%] | relative viability (621-102 (TSC2-deficient) [2]; 1 µM) [%] | relative viability (621-102 (TSC2-deficient) [2]; 10 µM) [%] | relative viability (621-103 (TSC2-rescued); 0.0001 µM) [%] | relative viability (621-103 (TSC2-rescued); 0.001 µM) [%] | relative viability (621-103 (TSC2-rescued); 0.01 µM) [%] | relative viability (621-103 (TSC2-rescued); 0.1 µM) [%] | relative viability (621-103 (TSC2-rescued); 1 µM) [%] | relative viability (621-103 (TSC2-rescued); 10 µM) [%]
CC(C)[C@H](C(=O)Nc1ccc(C(=O)NO)cc1)c1ccccc1 [AR-42] | 0.993 | 1.12 | 1.01 | 1.02 | 0.76 | 0.563 | 0.416 | 0.389 | 0.0646 | 1.03 | 1.11 | 1.12 | 1.07 | 0.89 | 0.548 | 0.0124 | 0.00772 | 0.00643 |  |  |  |  |  |  |  |  |  |  |  | 
CC(C)c1cc(C(C)C)c(CC(=O)NS(=O)(=O)Oc2c(C(C)C)cccc2C(C)C)c(C(C)C)c1 [Avasimibe] | 1.07 | 0.675 | 1.2 | 1.1 | 1.08 | 1.53 | 1.4 | 0.32 | 0.0125 | 1.13 | 1.12 | 1.19 | 1.06 | 1.08 | 1.1 | 1.02 | 0.00835 | 0.00834 |  |  |  |  |  |  |  |  |  |  |  | 
C#Cc1cccc(Nc2ncnc3cc(OC)c(OCCCCCCC(=O)NO)cc23)c1 [CUDC-101] | 0.714 | 0.529 | 0.505 | 0.386 | 0.343 | 0.123 | 0.127 | 0.005 | 0.0015 |  |  |  |  |  |  |  |  |  | 110.7 ± 0.61 | 108 ± 6.5 | 104 ± 1.9 | 95.14 ± 0.26 | 85.2 ± 2 | 30.6 ± 1.5 | 94.9 ± 1.2 | 99.73 ± 0.74 | 97.8 ± 1.4 | 93.79 ± 0.69 | 83.8 ± 2.3 | 2.28 ± 0.2
CCC[C@H](Nc1nc(-c2ccc(NC(=O)NCC)c(OC)c2)ncc1C)c1cccnc1 [CYT997] |  |  |  |  |  |  |  |  |  | 0.622 | 0.0694 | 0.00719 | 0.0079 | 0.00595 | 0.00742 | 0.00575 | 0.00558 | 0.00511 | 87.8 ± 1.3 | 95.67 ± 0.75 | 48.6 ± 1.6 | 39.1 ± 0.56 | 36.2 ± 0.95 | 41 ± 1.1 | 82.2 ± 1.5 | 78.28 ± 0.4 | 40.2 ± 0.82 | 26.3 ± 2.2 | 24.3 ± 0.3 | 25.4 ± 2
CC[C@@]1(O)C(=O)OCc2c1cc1n(c2=O)Cc2cc3ccccc3nc2-1 [Camptothecin] | 0.843 | 0.818 | 0.747 | 0.485 | 0.166 | 0.178 | 0.00844 | 0.00416 | 0.00456 | 0.995 | 0.913 | 0.83 | 0.129 | 0.0117 | 0.00478 | 0.00188 | 0.00182 | 0.00462 |  |  |  |  |  |  |  |  |  |  |  | 
Nc1ccn([C@@H]2O[C@H](CO)[C@@H](O)[C@@H]2O)c(=O)n1 [Cytarabine] | 1.24 | 1.08 | 1.14 | 0.885 | 1.01 | 0.505 | 0.244 | 0.096 | 0.0178 | 0.98 | 0.941 | 0.967 | 0.962 | 0.974 | 0.929 | 0.176 | 0.00531 | 0.0022 |  |  |  |  |  |  |  |  |  |  |  | 
COc1cccc2c1C(=O)c1c(O)c3c(c(O)c1C2=O)C[C@@](O)(C(=O)CO)C[C@@H]3O[C@H]1C[C@H](N)[C@H](O)[C@H](C)O1 [Doxorubicin (adriamycin)] | 0.343 | 0.2 | 0.0923 | 0.107 | 0.128 | 0.0761 | 0.0129 | 0.00359 | 0.00442 |  |  |  |  |  |  |  |  |  |  |  |  |  |  |  |  |  |  |  |  | 
CC1=NN(c2ccc(C)c(C)c2)C(=O)/C1=N\Nc1cccc(-c2cccc(C(=O)O)c2)c1O [Eltrombopag] | 1.19 | 0.961 | 0.994 | 0.991 | 0.875 | 0.926 | 1.43 | 0.074 | 0.0453 | 1.08 | 0.963 | 1 | 1.05 | 1.09 | 1.03 | 0.473 | 0.00551 | 0.00668 |  |  |  |  |  |  |  |  |  |  |  | 
CO[C@H]1C[C@@H]2CC[C@@H](C)[C@@](O)(O2)C(=O)C(=O)N2CCCC[C@H]2C(=O)O[C@H]([C@H](C)C[C@@H]2CC[C@@H](OCCO)[C@H](OC)C2)CC(=O)[C@H](C)/C=C(\C)[C@@H](O)[C@@H](OC)C(=O)[C@H](C)C[C@H](C)/C=C/C=C/C=C/1C [Everolimus(RAD001)] | 0.753 | 0.734 | 0.706 | 0.696 | 0.681 | 0.543 | 0.391 | 0.325 | 0.276 | 1 | 0.899 | 0.985 | 0.9 | 0.936 | 0.847 | 0.781 | 0.401 | 0.461 |  |  |  |  |  |  |  |  |  |  |  | 
COC(=O)Nc1nc2cc(Sc3ccccc3)ccc2[nH]1 [Fenbendazole] | 1.37 | 1.35 | 1.68 | 1.39 | 0.898 | 0.314 | 0.0634 | 0.0446 | 0.0203 | 1.05 | 0.807 | 1.02 | 0.969 | 0.983 | 0.605 | 0.00543 | 0.00256 | 0.00375 |  |  |  |  |  |  |  |  |  |  |  | 
CN1CC[C@H](c2c(O)cc(O)c3c(=O)cc(-c4ccccc4Cl)oc23)[C@H](O)C1 [Flavopiridol hydrochloride] | 0.701 | 0.787 | 0.805 | 0.875 | 0.747 | 0.227 | 0.009 | 0.0076 | 0.0171 | 0.977 | 1 | 0.989 | 1.04 | 1.15 | 0.855 | 0.00837 | 0.00534 | 0.00482 |  |  |  |  |  |  |  |  |  |  |  | 
COC1=C2C[C@@H](C)C[C@H](OC)[C@H](O)[C@@H](C)/C=C(\C)[C@H](OC(N)=O)[C@@H](OC)/C=C\C=C(/C)C(=O)NC(=CC1=O)C2=O [Geldanamycin] | 0.476 | 0.259 | 0.399 | 0.172 | 0.306 | 0.27 | 0.12 | 0.0204 | 0.0125 |  |  |  |  |  |  |  |  |  | 90.7 ± 2.4 | 91.7 ± 1.6 | 62.3 ± 3 | 39.82 ± 0.13 | 28.8 ± 1.5 | 8.32 ± 0.19 | 98.8 ± 6.2 | 77.8 ± 1.1 | 33.3 ± 7.4 | 10.09 ± 0.062 | 3.46 ± 0.37 | 3.05 ± 0.2
